Test system: SYO-1 complex spheroid growth, percent test/control
Assay: Anticancer human tumor SYO-1 cell line growth inhibition [Asc];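 also: compound exposure lasted 7 days after spheroids grew 3 days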;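 as to viability, T/C: 100% = DMSO vehicle control viability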
Conditions: for IC50: curve of first compound; for viability, T/C: stronger effect = lower value
Summary of the method: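 Tumor cells were grown as multicellular spheroids with stromal HUVEC and mesenchymal stem cells and treated singly or in combination. Concentrations fell in half-log steps from the clinical Cmax, or from 10 microM where none was known.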

[1] = second compound 0.01 µM, first compound 0.00316 µM
[2] = second compound 0.01 µM, first compound 0.01 µM
[3] = second compound 0.01 µM, first compound 0.0316 µM
[4] = second compound 0.01 µM, first compound 0.1 µM
[5] = second compound 0.01 µM, first compound 0.316 µM
[6] = second compound 0.01 µM, first compound 1 µM
[7] = second compound 0.0316 µM, first compound 0.00316 µM
[8] = second compound 0.0316 µM, first compound 0.01 µM
[9] = second compound 0.0316 µM, first compound 0.0316 µM
[10] = second compound 0.0316 µM, first compound 0.1 µM
[11] = second compound 0.0316 µM, first compound 0.316 µM
[12] = second compound 0.0316 µM, first compound 1 µM
[13] = second compound 0.1 µM, first compound 0.00316 µM
[14] = second compound 0.1 µM, first compound 0.01 µM
[15] = second compound 0.1 µM, first compound 0.0316 µM
[16] = second compound 0.1 µM, first compound 0.1 µM
[17] = second compound 0.1 µM, first compound 0.316 µM
[18] = second compound 0.1 µM, first compound 1 µM
[19] = second compound 0.316 µM, first compound 0.00316 µM
[20] = second compound 0.316 µM, first compound 0.01 µM
[21] = second compound 0.316 µM, first compound 0.0316 µM
[22] = second compound 0.316 µM, first compound 0.1 µM
[23] = second compound 0.316 µM, first compound 0.316 µM
[24] = second compound 0.316 µM, first compound 1 µM
[25] = second compound 1 µM, first compound 0.00316 µM
[26] = second compound 1 µM, first compound 0.01 µM
[27] = second compound 1 µM, first compound 0.0316 µM
[28] = second compound 1 µM, first compound 0.1 µM
[29] = second compound 1 µM, first compound 0.316 µM
[30] = second compound 1 µM, first compound 1 µM

For `CCN1CCN(Cc2ccc(Nc3ncc(F)c(-c4cc(F)c5nc(C)n(C(C)C)c5c4)n3)nc2)CC1` + CNC(C)C(=O)NC1CN(S(=O)(=O)c2cccc(S(=O)(=O)N3CCC4CCC(C(=O)NC(c5ccccc5)c5ccccc5)N4C(=O)C(NC(=O)C(C)NC)C3)c2)CCC2CCC(C(=O)NC(c3ccccc3)c3ccccc3)N2C1=O, the IC50 (second compound 0.01 µM) was > 1000 nM, the IC50 (second compound 0.0316 µM) was > 1000 nM and the IC50 (second compound 0.1 µM) was > 1000 nM. The IC50 (second compound 0.316 µM) was > 1000 nM, the IC50 (second compound 1 µM) was > 1000 nM and the viability, T/C [1] was 110%. The viability, T/C [2] was 114%, the viability, T/C [3] was 108% and the viability, T/C [4] was 111%. It also gave a viability, T/C [5] of 109%, a viability, T/C [6] of 116% and a viability, T/C [7] of 101%. The viability, T/C [8] was 101%, the viability, T/C [9] was 105% and the viability, T/C [10] was 110%. The viability, T/C [11] was 112%, the viability, T/C [12] was 114% and the viability, T/C [13] was 102%. It also gave a viability, T/C [14] of 101%, a viability, T/C [15] of 96.7% and a viability, T/C [16] of 106%. It also gave a viability, T/C [17] of 105%, a viability, T/C [18] of 108% and a viability, T/C [19] of 97.6%. It also gave a viability, T/C [20] of 103%, a viability, T/C [21] of 108% and a viability, T/C [22] of 100%. It also gave a viability, T/C [23] of 109%, a viability, T/C [24] of 115% and a viability, T/C [25] of 101%. For the same compound, the viability, T/C [26] was 101%, the viability, T/C [27] was 103% and the viability, T/C [28] was 110%. The viability, T/C [29] was 101% and the viability, T/C [30] was 101%.
In the case of `COc1c(OCCCN2CCOCC2)ccc2c3n(c(=NC(=O)c4cnc(N)nc4)nc12)CCN3` + CNC(C)C(=O)NC1CN(S(=O)(=O)c2cccc(S(=O)(=O)N3CCC4CCC(C(=O)NC(c5ccccc5)c5ccccc5)N4C(=O)C(NC(=O)C(C)NC)C3)c2)CCC2CCC(C(=O)NC(c3ccccc3)c3ccccc3)N2C1=O, the IC50 (second compound 0.01 µM) is reported as > 1000 nM, the IC50 (second compound 0.0316 µM) is reported as > 1000 nM and the IC50 (second compound 0.1 µM) is reported as > 1000 nM. The IC50 (second compound 0.316 µM) was > 1000 nM, the IC50 (second compound 1 µM) was > 1000 nM and the viability, T/C [1] was 106%. For the same compound, the viability, T/C [2] was 109%, the viability, T/C [3] was 116% and the viability, T/C [4] was 106%. It also gave a viability, T/C [5] of 96%, a viability, T/C [6] of 68.3% and a viability, T/C [7] of 113%. It also gave a viability, T/C [8] of 126%, a viability, T/C [9] of 118% and a viability, T/C [10] of 110%. It also gave a viability, T/C [11] of 98.2%, a viability, T/C [12] of 72.9% and a viability, T/C [13] of 107%. For the same compound, the viability, T/C [14] was 119%, the viability, T/C [15] was 118% and the viability, T/C [16] was 107%. It also gave a viability, T/C [17] of 102%, a viability, T/C [18] of 68.7% and a viability, T/C [19] of 111%. For the same compound, the viability, T/C [20] was 122%, the viability, T/C [21] was 116% and the viability, T/C [22] was 105%. The viability, T/C [23] was 96.1%, the viability, T/C [24] was 69.2% and the viability, T/C [25] was 114%. For the same compound, the viability, T/C [26] was 124%, the viability, T/C [27] was 117% and the viability, T/C [28] was 113%. It also gave a viability, T/C [29] of 95.1% and a viability, T/C [30] of 73.3%.
